Reference: the NIST ThermoML archive (doi:10.1021/je300784x)

Details: Liquid, Twin ebulliometer

CCOc1ccccc1O [2-ethoxyphenol]
Details | vapor or sublimation pressure [kPa]
380.22 K | 2.827
383.28 K | 3.25
386.29 K | 3.72
391.94 K | 4.757
397.4 K | 5.986
402.92 K | 7.506
408.63 K | 9.39
414.5 K | 11.73
418.79 K | 13.71
423.31 K | 16.11
428.48 K | 19.24
436.26 K | 24.89
445.61 K | 33.38
457.01 K | 46.82
486.03 K | 100.76
